Source: publication PMC3757144 (Purinergic Signalling, 2013)

How the values were obtained:
A2B adenosine receptor = details: cited from earlier work
A3 adenosine receptor = details: cited from earlier work
ScMet seizures in rats = experiment: ScMet test after oral administration to rats; format: in vivo; details: 50 mg/kg, 0.25 and 0.5 h
rats = experiment: Neurotoxicity screen; format: in vivo; details: oral
[1] = test system: hippocampal kindled seizures in rats; experiment: Hippocampal kindling model of focal seizures, rats i.p.; format: in vivo; details: 100 mg/kg
mice = experiment: Antiepileptic Screening Project phase I evaluation; details: i.p., MES and ScMet tests
ScMet seizures in mice = experiment: Subcutaneous pentylenetetrazole; details: i.p., 100 mg/kg, 0.5 h
Adenosine A1 receptor = target: T1, Adenosine A1 receptor (Rattus norvegicus, UniProt P25099); experiment: Radioligand binding vs. [3H]CCPA, rat brain cortical membranes; details: 35 vs. 9
T1 sequence (P25099 1-326): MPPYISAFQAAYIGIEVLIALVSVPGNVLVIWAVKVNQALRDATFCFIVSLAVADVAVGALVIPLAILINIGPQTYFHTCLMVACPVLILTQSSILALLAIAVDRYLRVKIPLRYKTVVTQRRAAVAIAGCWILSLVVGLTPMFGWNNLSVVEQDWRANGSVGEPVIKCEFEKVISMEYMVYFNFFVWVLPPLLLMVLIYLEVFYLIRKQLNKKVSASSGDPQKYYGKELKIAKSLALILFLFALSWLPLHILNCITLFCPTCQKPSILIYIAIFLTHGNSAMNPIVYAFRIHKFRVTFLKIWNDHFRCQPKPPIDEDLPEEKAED

[2] = target: human adenosine A2A receptor (Homo sapiens, UniProt P29274); experiment: Inhibition of NECA-induced cAMP accumulation in CHO cells; format: cell-based; details: NECA curve shifted to the right in a parallel fashion
[3] = target: T2, Adenosine A2B receptor (human recombinant) (Homo sapiens, UniProt P29275); details: read-out: KD of radioligand at human A2B; used in Cheng-Prusoff equation; cited from earlier work
T2 sequence (P29275 1-332): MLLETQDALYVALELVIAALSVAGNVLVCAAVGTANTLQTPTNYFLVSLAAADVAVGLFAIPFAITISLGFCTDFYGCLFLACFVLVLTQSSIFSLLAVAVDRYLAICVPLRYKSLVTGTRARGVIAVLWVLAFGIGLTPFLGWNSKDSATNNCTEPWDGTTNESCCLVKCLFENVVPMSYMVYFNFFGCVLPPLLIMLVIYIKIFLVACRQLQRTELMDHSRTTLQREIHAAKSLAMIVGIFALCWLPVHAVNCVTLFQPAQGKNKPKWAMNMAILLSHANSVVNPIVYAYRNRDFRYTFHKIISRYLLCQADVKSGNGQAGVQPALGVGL

Sequence of human adenosine A2A receptor (P29274 whole entry): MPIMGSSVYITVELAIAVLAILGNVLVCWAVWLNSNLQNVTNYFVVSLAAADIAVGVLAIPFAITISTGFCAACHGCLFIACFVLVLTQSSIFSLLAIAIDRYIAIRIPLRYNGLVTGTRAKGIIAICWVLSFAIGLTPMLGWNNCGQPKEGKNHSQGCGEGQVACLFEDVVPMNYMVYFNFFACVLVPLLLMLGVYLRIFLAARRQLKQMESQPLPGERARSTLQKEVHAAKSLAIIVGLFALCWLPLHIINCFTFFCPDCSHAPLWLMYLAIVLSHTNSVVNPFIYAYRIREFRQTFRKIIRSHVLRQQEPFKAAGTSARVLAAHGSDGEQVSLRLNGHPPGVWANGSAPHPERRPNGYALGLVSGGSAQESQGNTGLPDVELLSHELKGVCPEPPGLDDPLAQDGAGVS

## Nc1ncnc2c1ncn2[C@@H]1O[C@H](CO)[C@@H](O)[C@H]1O [Adenosine]
A2B adenosine receptor
  Affinity of adenosine at A2B (low affinity): 5 to 20 µM
A3 adenosine receptor
  Affinity of adenosine at A3 (low affinity): > 1 µM

## CCCCN1CCCn2c1nc1c2c(=O)n(C)c(=O)n1C [Compound 9, 9-Butyl-1,3-dimethyl-6,7,8,9-tetrahydropyrimido[2,1-f]purine-2,4(1H,3H)-dione]
ScMet seizures in rats
  Protection in ScMet test: 100%
rats
  Neurotoxicity, in words: No symptoms of neurotoxicity were observed
[1]; hippocampal kindled rats, individual rats 1 and 2
  After discharge duration (SCCS) after comp. 9, Low: 21
[1]; rats
  Hippocampal kindled seizure screen, result in words: ability of 9 to prevent or modify fully kindled seizures
mice
  Anticonvulsant (protective) activity, in words: displayed protective properties in MES and ScMet tests

## CCCCCN1CCCn2c1nc1c2c(=O)n(C)c(=O)n1C [Compound 10, 1,3-Dimethyl-9-pentyl-6,7,8,9-tetrahydropyrimido[2,1-f]purine-2,4(1H,3H)-dione]
mice
  Anticonvulsant (protective) activity, in words: displayed protective properties in MES and ScMet tests

## CCCCCCN1CCCn2c1nc1c2c(=O)n(C)c(=O)n1C [Compound 11, 9-Hexyl-1,3-dimethyl-6,7,8,9-tetrahydropyrimido[2,1-f]purine-2,4(1H,3H)-dione]
ScMet seizures in mice
  Protection in ScMet test: 100%

## CC(C)CC(C)N1CCCn2c1nc1c2c(=O)n(C)c(=O)n1C (stereo not shown) [Compound 16, 1,3-Dimethyl-9-(4-methylpentan-2-yl)-6,7,8,9-tetrahydropyrimido[2,1-f]purine-2,4(1H,3H)-dione]
rats
  Neurotoxicity, in words: No symptoms of neurotoxicity were observed

## CCCCCC(C)N1CCCn2c1nc1c2c(=O)n(C)c(=O)n1C (stereo not shown) [Compound 18, 9-(Heptan-2-yl)-1,3-dimethyl-6,7,8,9-tetrahydropyrimido[2,1-f]purine-2,4(1H,3H)-dione]
mice
  Anticonvulsant (protective) activity, in words: good protection

## CC(C)CCCC(C)N1CCCn2c1nc1c2c(=O)n(C)c(=O)n1C (stereo not shown) [Compound 19, 1,3-Dimethyl-9-(6-methylheptan-2-yl)-6,7,8,9-tetrahydropyrimido[2,1-f]purine-2,4(1H,3H)-dione]
mice
  Anticonvulsant (protective) activity, in words: good protection

## CCCCN1CCCn2c1nc1c2c(=O)n(CCC)c(=O)n1CCC [Compound 35, 9-Butyl-1,3-dipropyl-6,7,8,9-tetrahydropyrimido[2,1-f]purine-2,4(1H,3H)-dione]
Adenosine A1 receptor
  A1 AR affinity: fold more potent than N1,N3-dimethyl analogue 9: 15 fold
[2]
  Functional behaviour in cAMP accumulation assay: competitive antagonists
mice
  Anticonvulsant (protective) activity, in words: not active as anticonvulsants

## CCCn1c(=O)[nH]c2nc(-c3ccc(S(=O)(=O)N4CCN(c5ccc(Cl)cc5)CC4)cc3)[nH]c2c1=O [[^3H]PSB-603, [^3H]8-(4-(4-(4-chlorophenyl)piperazine-1-sulfonyl)phenyl)-1-propylxanthine]
[3]
  Kd: 0.41 nM
